The target of assay [1] is human Cereblon WT GST-tagged protein (Homo sapiens (Human), UniProt Q96SW2). The experiment in a line: CRBN-binding affinity, HTRF (CEREBLON BINDING kit, CISBIO). As to conditions: HTRF inhibitory activity. The method in brief:
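Compounds were mixed with GST-tagged human Cereblon WT protein, then with Thalidomide-Red tracer and GST Eu antibody, and binding was read by HTRF. Inhibition rate was calculated from 620 nm emission relative to blank control wells (no protein) and solvent control wells.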
In general terms: In TR-FRET formats the signal depends on donor and acceptor labels being close together.

Assay [2] deals with IKZF3 (Homo sapiens (Human), UniProt Q96SW2+Q9UKT9). The assay is described as follows: Western blot, substrate protein expression in hPBMC: IKZF3. The format is cell-based. As to conditions: hPBMC, compound 500 nM, 24 hours, Western blot. The method in brief: (§1)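 hPBMC, 1×10^6 cells/mL, 24 h compound exposure; RIPA lysis, BCA protein assay, SDS-PAGE, NC membrane immunoblot. Densitometry vs internal control → % protein remaining; degradation % = 100% − remaining; DC50 = conc. at 50% of DMSO band signal.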

In assay [3] the target is GSPT1 (Homo sapiens (Human), UniProt P15170+Q96SW2). The experiment in a line: Western blot, substrate protein expression in hPBMC: GSPT1. The format is cell-based. As to conditions: hPBMC, compound 500 nM, 24 hours, Western blot. The method in brief: as §1
Assay [4] concerns the target IKZF1 (Homo sapiens (Human), UniProt Q13422+Q96SW2). The experiment in a line: Western blot, substrate protein expression in hPBMC: IKZF1. As to conditions: hPBMC, compound 500 nM, 24 hours, Western blot. The format is cell-based. An outline of the steps:
as §1

pIC50: −log10 of the molar value.

In general, pIC50 refers to the IC50 on a negative log10 scale, so that one unit is a factor of ten.

Sequence of human Cereblon WT GST-tagged protein (Q96SW2 whole entry): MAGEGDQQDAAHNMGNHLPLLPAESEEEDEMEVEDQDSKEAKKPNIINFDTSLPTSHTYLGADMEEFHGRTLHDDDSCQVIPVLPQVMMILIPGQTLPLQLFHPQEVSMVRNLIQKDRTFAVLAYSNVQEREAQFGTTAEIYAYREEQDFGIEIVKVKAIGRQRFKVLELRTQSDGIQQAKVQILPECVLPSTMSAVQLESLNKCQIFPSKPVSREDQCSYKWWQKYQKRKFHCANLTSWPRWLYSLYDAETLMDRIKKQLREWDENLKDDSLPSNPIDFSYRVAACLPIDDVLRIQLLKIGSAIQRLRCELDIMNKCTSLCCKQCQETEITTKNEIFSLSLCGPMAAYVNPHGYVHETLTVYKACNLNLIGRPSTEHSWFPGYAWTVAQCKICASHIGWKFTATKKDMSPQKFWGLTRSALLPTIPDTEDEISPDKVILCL
Sequence of IKZF3 (Q9UKT9 whole entry): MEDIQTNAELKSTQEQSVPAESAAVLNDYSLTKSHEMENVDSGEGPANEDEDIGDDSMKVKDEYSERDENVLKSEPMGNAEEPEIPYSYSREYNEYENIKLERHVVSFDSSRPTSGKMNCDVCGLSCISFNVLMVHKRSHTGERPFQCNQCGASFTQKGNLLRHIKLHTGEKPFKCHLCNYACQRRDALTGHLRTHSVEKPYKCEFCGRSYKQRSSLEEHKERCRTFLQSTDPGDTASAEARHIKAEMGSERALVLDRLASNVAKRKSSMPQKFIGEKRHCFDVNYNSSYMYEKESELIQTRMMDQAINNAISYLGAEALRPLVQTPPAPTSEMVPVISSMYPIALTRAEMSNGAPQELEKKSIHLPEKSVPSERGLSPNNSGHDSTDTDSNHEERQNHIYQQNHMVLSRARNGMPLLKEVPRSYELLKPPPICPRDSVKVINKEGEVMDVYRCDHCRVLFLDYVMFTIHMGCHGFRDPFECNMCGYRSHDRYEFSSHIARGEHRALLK
Sequence of IKZF3 (Q96SW2 whole entry): as the sequence (Q96SW2 whole entry) above
Sequence of IKZF3 (Q16531 whole entry partner): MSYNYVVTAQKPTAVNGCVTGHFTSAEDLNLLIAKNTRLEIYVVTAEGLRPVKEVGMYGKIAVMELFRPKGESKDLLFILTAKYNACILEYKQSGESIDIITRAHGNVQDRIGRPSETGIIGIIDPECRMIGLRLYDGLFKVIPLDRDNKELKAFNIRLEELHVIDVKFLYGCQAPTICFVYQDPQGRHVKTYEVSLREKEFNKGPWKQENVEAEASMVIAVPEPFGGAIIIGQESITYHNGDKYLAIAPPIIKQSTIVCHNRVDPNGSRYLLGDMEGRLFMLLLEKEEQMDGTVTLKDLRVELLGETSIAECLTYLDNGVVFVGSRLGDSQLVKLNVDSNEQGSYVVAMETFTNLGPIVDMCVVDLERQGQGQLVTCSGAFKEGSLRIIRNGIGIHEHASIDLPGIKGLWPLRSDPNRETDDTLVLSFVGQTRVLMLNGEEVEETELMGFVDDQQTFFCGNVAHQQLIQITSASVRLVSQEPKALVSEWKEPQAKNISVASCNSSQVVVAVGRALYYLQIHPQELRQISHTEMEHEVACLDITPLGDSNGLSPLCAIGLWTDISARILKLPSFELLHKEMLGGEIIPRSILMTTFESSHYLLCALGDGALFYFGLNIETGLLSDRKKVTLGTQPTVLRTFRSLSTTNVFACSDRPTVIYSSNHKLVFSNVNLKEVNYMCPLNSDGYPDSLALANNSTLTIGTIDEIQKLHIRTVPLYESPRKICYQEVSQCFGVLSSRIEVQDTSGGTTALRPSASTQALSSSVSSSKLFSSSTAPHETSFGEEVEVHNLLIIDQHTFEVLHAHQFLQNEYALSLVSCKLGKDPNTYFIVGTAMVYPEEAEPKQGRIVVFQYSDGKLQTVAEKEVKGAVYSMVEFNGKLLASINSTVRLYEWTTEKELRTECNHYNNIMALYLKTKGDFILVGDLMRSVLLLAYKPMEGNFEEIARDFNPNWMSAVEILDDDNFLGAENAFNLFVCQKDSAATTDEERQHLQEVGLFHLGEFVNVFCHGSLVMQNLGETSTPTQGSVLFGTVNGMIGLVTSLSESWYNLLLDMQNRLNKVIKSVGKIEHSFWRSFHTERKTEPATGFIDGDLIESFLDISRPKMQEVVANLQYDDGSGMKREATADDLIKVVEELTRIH
Sequence of IKZF1 (Q13422 whole entry): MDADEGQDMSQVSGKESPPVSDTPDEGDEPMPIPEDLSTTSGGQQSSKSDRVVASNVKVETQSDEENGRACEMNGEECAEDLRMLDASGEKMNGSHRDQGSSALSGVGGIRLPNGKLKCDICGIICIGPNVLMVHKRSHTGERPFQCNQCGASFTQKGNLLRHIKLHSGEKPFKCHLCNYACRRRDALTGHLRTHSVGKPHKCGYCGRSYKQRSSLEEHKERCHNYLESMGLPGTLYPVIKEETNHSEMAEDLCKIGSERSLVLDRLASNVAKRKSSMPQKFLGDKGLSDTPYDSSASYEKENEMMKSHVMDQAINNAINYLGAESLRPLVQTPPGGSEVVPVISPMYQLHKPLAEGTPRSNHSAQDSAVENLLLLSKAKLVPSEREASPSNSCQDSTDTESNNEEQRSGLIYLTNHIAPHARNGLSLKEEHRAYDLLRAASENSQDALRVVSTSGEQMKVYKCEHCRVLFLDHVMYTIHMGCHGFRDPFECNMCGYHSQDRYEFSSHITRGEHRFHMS
Sequence of IKZF1 (Q96SW2 whole entry): as the sequence (Q96SW2 whole entry) above
Sequence of IKZF1 (Q16531 whole entry partner): as the sequence (Q16531 whole entry partner) above
Sequence of GSPT1 (P15170 whole entry): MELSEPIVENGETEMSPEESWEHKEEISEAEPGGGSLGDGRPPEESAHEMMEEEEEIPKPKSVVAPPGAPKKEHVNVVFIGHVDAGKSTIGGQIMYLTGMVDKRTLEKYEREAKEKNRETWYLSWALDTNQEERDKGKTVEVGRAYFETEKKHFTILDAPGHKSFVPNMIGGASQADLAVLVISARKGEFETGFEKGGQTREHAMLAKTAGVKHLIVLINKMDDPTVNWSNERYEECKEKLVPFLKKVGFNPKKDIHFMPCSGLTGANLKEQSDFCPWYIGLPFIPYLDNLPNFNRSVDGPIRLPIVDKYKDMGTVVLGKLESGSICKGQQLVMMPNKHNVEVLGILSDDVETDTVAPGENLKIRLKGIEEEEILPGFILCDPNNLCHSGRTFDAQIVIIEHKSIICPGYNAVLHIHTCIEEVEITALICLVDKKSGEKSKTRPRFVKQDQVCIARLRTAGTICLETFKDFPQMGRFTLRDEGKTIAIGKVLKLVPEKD
Sequence of GSPT1 (Q96SW2 whole entry): as the sequence (Q96SW2 whole entry) above
Sequence of GSPT1 (Q16531 whole entry partner): as the sequence (Q16531 whole entry partner) above

The molecule `O=C1CCC(N2Cc3cc(C(=O)N4CCN(C(c5ccc(F)cc5)c5ccc(F)cc5)CC4)cc(F)c3C2=O)C(=O)N1` (stereo not drawn) [GT-05882, 3-(5-(4-(bis(4-fluorophenyl)methyl)piperazine-1-carbonyl)-7-fluoro-1-oxoisoindolin-2-yl)piperidine-2,6-dione] gave a pIC50 in assay [1] of 6.00 to 6.30. In assay [2], the “substrate protein remaining % IKZF3” value is given as “B (B represents substrate protein remaining % > 50%)”. For the same molecule, the “substrate protein remaining % GSPT1” value in assay [3] is “A (A represents 0% ≤ substrate protein remaining % ≤ 50%)”. The “substrate protein remaining % IKZF1” value in assay [4] is “B (B represents substrate protein remaining % > 50%)”.

For `O=C1CCC(N2Cc3cc(C(=O)N4CCN(C(c5ccc(Cl)cc5)c5ccc(Cl)cc5)CC4)ccc3C2=O)C(=O)N1` (stereo not drawn) [GT-05886, 3-(5-(4-(bis(4-chlorophenyl)methyl)piperazine-1-carbonyl)-1-oxoisoindolin-2-yl)piperidine-2,6-dione], in assay [1], the pIC50 is 5.72 to 6.00. Further, the “substrate protein remaining % IKZF3” value in assay [2] is recorded as “A (A represents 0% ≤ substrate protein remaining % ≤ 50%)”. The “substrate protein remaining % GSPT1” value in assay [3] is given as “A (A represents 0% ≤ substrate protein remaining % ≤ 50%)”. Besides, the “substrate protein remaining % IKZF1” value in assay [4] is listed as “B (B represents substrate protein remaining % > 50%)”.

In turn, `O=C1CCC(N2Cc3c(CN4CC5(CCN(C(c6ccccc6)c6ccccc6)CC5)C4)cccc3C2=O)C(=O)N1` (stereo not drawn) [GT-05905, 3-(4-((7-benzhydryl-2,7-diazaspiro[3.5]nonan-2-yl)methyl)-1-oxoisoindolin-2-yl)piperidine-2,6-dione] gave a pIC50 in assay [1] of 6.00 to 6.30. Further, in assay [2], the “substrate protein remaining % IKZF3” value was “B (B represents substrate protein remaining % > 50%)”. Besides, the “substrate protein remaining % GSPT1” value in assay [3] is given as “A (A represents 0% ≤ substrate protein remaining % ≤ 50%)”. In addition, the “substrate protein remaining % IKZF1” value in assay [4] is listed as “B (B represents substrate protein remaining % > 50%)”.

As for `CC1CN(C(c2ccccc2)c2ccccc2)CC(C)N1C(=O)c1ccc2c(c1)CN(C1CCC(=O)NC1=O)C2=O` (stereo not drawn) [GT-05920, 3-(5-(4-benzhydryl-2,6-dimethylpiperazine-1-carbonyl)-1-oxoisoindolin-2-yl)piperidine-2,6-dione], the pIC50 in assay [1] was greater than 6.30. In addition, the “substrate protein remaining % IKZF3” value in assay [2] is recorded as “B (B represents substrate protein remaining % > 50%)”. The “substrate protein remaining % GSPT1” value in assay [3] is “A (A represents 0% ≤ substrate protein remaining % ≤ 50%)”. In assay [4], the “substrate protein remaining % IKZF1” value is “B (B represents substrate protein remaining % > 50%)”.

In assay [1], `CC1CN(C(c2ccccc2)c2ccccc2)CC(C)N1C(=O)c1ccc2c(c1)C(=O)N(C1CCC(=O)NC1=O)C2=O` (stereo not drawn) [GT-05922, 5-(4-benzhydryl-2,6-dimethylpiperazine-1-carbonyl)-2-(2,6-dioxopiperidin-3-yl) isoindoline-1,3-dione] showed a pIC50 of 5.72 to 6.00. The “substrate protein remaining % IKZF3” value in assay [2] is “B (B represents substrate protein remaining % > 50%)”. Further, the “substrate protein remaining % GSPT1” value in assay [3] is reported as “A (A represents 0% ≤ substrate protein remaining % ≤ 50%)”. In addition, in assay [4], the “substrate protein remaining % IKZF1” value is “B (B represents substrate protein remaining % > 50%)”.

`O=C1CCC(N2Cc3cc(C(=O)N4CCC(N(c5ccccc5)c5ccccn5)CC4)ccc3C2=O)C(=O)N1` (stereo not drawn) [GT-05923, 3-(1-oxo-5-(4-(phenyl(pyridin-2-yl)amino)piperidine-1-carbonyl)isoindolin-2-yl)piperidine-2,6-dione]: the pIC50 in assay [1] is greater than 6.30. Further, the “substrate protein remaining % IKZF3” value in assay [2] is listed as “B (B represents substrate protein remaining % > 50%)”. Also, the “substrate protein remaining % GSPT1” value in assay [3] was “A (A represents 0% ≤ substrate protein remaining % ≤ 50%)”. Moreover, in assay [4], the “substrate protein remaining % IKZF1” value is on record as “B (B represents substrate protein remaining % > 50%)”.

Source of the values: US20250320193A1, “OXOISOINDOLINYL SUBSTITUTED PIPERIDINEDIONE DERIVATIVE AND USE THEREOF” (GLUETACS THERAPEUTICS (SHANGHAI) CO., LTD., priority 2022, published 2025).
